Source: the supplement of paper PMC4862054

Key:
Assay in all cases: normalised response (% of control), CellTox Green; higher = less cell death (100 = DMSO, 0 = benzethonium chloride kill control)
Settings in all cases: incubation time: 72 h
CAL-51 = system: CAL-51
Summary of the method: (§1)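 Compound was dispensed into 384-well plates at 5 concentrations in 10-fold steps spanning a 10,000-fold range specific to that compound. Breast cancer cell lines were added as 20 µl suspension and left for 72 h before CellTox Green fluorescence (485/520 nm) and then CellTiter-Glo luminescence, read after 10 min at room temperature. Each reported value is the normalised signal at one concentration, with 0.1 % DMSO set at 100 and a positive kill control at 0 on each plate.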

HCC1599 = system: HCC1599
Summary of the method: as §1

Hs578T = system: Hs578T
Summary of the method: as §1

BT-549 = system: BT-549
Summary of the method: as §1

MDA-MB-231 = system: MDA-MB-231
Summary of the method: as §1

MDA-MB-453 = system: MDA-MB-453
Summary of the method: as §1

DU-4475 = system: DU-4475
Summary of the method: as §1

BT-474 = system: BT-474
Summary of the method: as §1

CAL-85-1 = system: CAL-85-1
Summary of the method: as §1

HCC1143 = system: HCC1143
Summary of the method: as §1

MDA-MB-436 = system: MDA-MB-436
Summary of the method: as §1

MFM-223 = system: MFM-223
Summary of the method: as §1

MDA-MB-468 = system: MDA-MB-468
Summary of the method: as §1

SMILES | normalised response (CAL-51) [%] | normalised response (HCC1599) [%] | normalised response (Hs578T) [%] | normalised response (BT-549) [%] | normalised response (MDA-MB-231) [%] | normalised response (MDA-MB-453) [%] | normalised response (DU-4475) [%] | normalised response (BT-474) [%] | normalised response (CAL-85-1) [%] | normalised response (HCC1143) [%] | normalised response (MDA-MB-436) [%] | normalised response (MFM-223) [%] | normalised response (MDA-MB-468) [%]
Cc1ccc(F)c(NC(=O)Nc2ccc(-c3cccc4[nH]nc(N)c34)cc2)c1 [Linifanib] (1000 nM) | 99.5 | 104 | 105 | 122 | 110 | 102 | 106 | 101 | 65.7 | 87.2 | 107 | 101 | 86.9
S=c1[nH]cnc2nc[nH]c12 [Mercaptopurine] (1000 nM) | 102 | 92.1 | 104 | 77.2 | 96.1 | 101 | 97.6 | 94.6 | 104 | 88.2 | 100 | 85.8 | 155
S=c1[nH]cnc2nc[nH]c12 [Mercaptopurine] (10000 nM) | 101 | 102 | 121 | 107 | 95.7 | 91.5 | 97.8 | 101 | 118 | 108 | 93.6 | 79.1 | 185
Clc1ccc(C(c2ccccc2Cl)C(Cl)Cl)cc1 (stereo not given) [Mitotane] (1000 nM) | 103 | 93.5 |  | 115 | 95.2 | 100 | 98.3 | 100 | 108 | 87 | 96.3 | 93.7 | 140
Clc1ccc(C(c2ccccc2Cl)C(Cl)Cl)cc1 (stereo not given) [Mitotane] (10000 nM) | 98.5 | 99.5 | 105 | 93.4 |  | 104 | 97.7 | 98 | 107 | 68.9 | 99.5 | 96.9 | 80.3
COc1cccc2cc(-c3nc([C@H]4CC[C@H](C(=O)O)CC4)n4ncnc(N)c34)[nH]c12 [OSI-027] (1000 nM) | 104 | 101 | 106 | 102 | 65 | 105 | 97.3 | 100 | 93.6 |  | 91.9 | 98.9 | 119
COc1cccc2cc(-c3nc([C@H]4CC[C@H](C(=O)O)CC4)n4ncnc(N)c34)[nH]c12 [OSI-027] (10000 nM) | 94.5 | 107 | 130 | 113 | 130 | 103 | 99.7 | 94.2 | 89.2 | 115 | 109 | 84 | 86
OC[C@H]1O[C@@H](n2cnc3c2N=CNC[C@H]3O)C[C@@H]1O [Pentostatin] (1000 nM) | 103 | 95.5 | 97.8 | 111 | 116 | 107 | 103 | 98.9 | 106 | 101 | 102 | 96 | 100
OC[C@H]1O[C@@H](n2cnc3c2N=CNC[C@H]3O)C[C@@H]1O [Pentostatin] (10000 nM) | 102 | 95.2 | 103 | 88.3 | 118 | 104 | 97.4 | 103 | 85.2 | 110 | 97.6 | 90.8 | 112
N#CC[C@H](C1CCCC1)n1cc(-c2ncnc3[nH]ccc23)cn1 [Ruxolitinib] (1000 nM) | 111 | 95.2 | 83.8 | 127 | 107 | 102 | 95.8 | 100 | 108 | 102 | 96.2 | 96.2 | 119
N#CC[C@H](C1CCCC1)n1cc(-c2ncnc3[nH]ccc23)cn1 [Ruxolitinib] (10000 nM) | 76.2 | 96.7 | 118 | 113 | 93.4 | 98.4 | 98.2 | 98.6 | 84.8 | 98.3 | 97.7 | 94.1 | 149
C=CC[C@@H]1/C=C(\C)C[C@H](C)C[C@H](OC)[C@H]2O[C@@](O)(C(=O)C(=O)N3CCCC[C@H]3C(=O)O[C@H](/C(C)=C/[C@@H]3CC[C@@H](O)[C@H](OC)C3)[C@H](C)[C@@H](O)CC1=O)[C@H](C)C[C@@H]2OC [Tacrolimus] (1000 nM) | 110 | 90.2 |  | 116 | 108 | 106 | 100 | 99.5 | 96.3 | 102 | 89.6 |  | 130
C=CC[C@@H]1/C=C(\C)C[C@H](C)C[C@H](OC)[C@H]2O[C@@](O)(C(=O)C(=O)N3CCCC[C@H]3C(=O)O[C@H](/C(C)=C/[C@@H]3CC[C@@H](O)[C@H](OC)C3)[C@H](C)[C@@H](O)CC1=O)[C@H](C)C[C@@H]2OC [Tacrolimus] (10000 nM) | 97.9 | 100 | 112 | 103 |  | 100 | 99.8 | 101 | 92.3 | 91.2 | 92.5 | 98.3 | 52.5
CS(=O)(=O)c1ccc(C(=O)Nc2ccc(Cl)c(-c3ccccn3)c2)c(Cl)c1 [Vismodegib] (1000 nM) | 86.1 | 85.9 | 100 | 99.3 | 90.8 | 99.7 | 99 | 100 | 94.4 |  | 98 | 99.1 | 149
